Data published in US11986513B2, “GAL(1-15) and analogues thereof for use in the prevention and/or treatment of alcohol-related effects and disorders” (UNIVERSIDAD DE MÁLAGA, priority 2017, dated 2024).
Like-named read-outs stand apart in the source and are kept apart here.

Experiments:
[1] = tested on: hepatic cytosolic alcohol dehydrogenase (ADH)
Description: The activity of hepatic cytosolic alcohol dehydrogenase (ADH) in the rats from the two-bottle choice test was analysed. ADH activity has a good correlation with ethanol elimination rates in vivo (Lumeng et al., 1979) and chronic ethanol administration causes an increase in ADH activity (Buris et al., 1985).
The livers were removed 2 hours after i.c.v. injections and frozen in solid CO2 until use. Determination of ADH activity was performed in homogenized liver tissue in a TrisHCl solution (10 mM, pH=8.8; 0.5 mM dithiothreitol) centrifuged at 12.000 g for 10 minutes. ADH activity was evaluated using a microassay adapted to Cobas Mira analyser according to Shephard and colleagues (Shephard et al., 1987). Briefly, 300 μl of NAD solution (2.9 mM in 0.1 M Glycine/NaOH: p=10) was added to 30 μl of sample. The first optical reading was recorded before the addition of 20 μl of 17 mM ethanol, and then the rate of change in absorption of the NADH chromogen was recorded at 340 nm over time on the Cobas Mira analyser at 37° C. One activity unit was defined as the reduction of […] NAD to NADH/min at 37° C.

[2] = tested on: rats; experiment: Locomotor activity (open field), ethanol-reduced locomotion; format: in vivo, rat
Description: In this experiment, the effects of GAL(1-15) (3 nmol) on ethanol-reduced locomotion (1.75 g/kg; intraperitoneal (i.p.)) (Vallof et al., 2016) were investigated. Locomotor activity was recorded in rat open field (100×100×50 cm) where animals were individually placed and left to freely explore. Their behaviour was recorded over a 30-minute period by ceiling-mounted video camera, and locomotor activity was analysed using the video-tracking software EthovisionXT. After each assay, all surfaces were cleaned with a paper towel and 70% ethanol solution. For locomotor activity, total distance travelled (cm) and mean speed (cm/s) were recorded. Groups of rats were administered via i.c.v. GAL(1-15) or vehicle 20 minutes before the test; i.p. ethanol (1.75 g/kg) or saline solution administration was performed 5 minutes before the test.

[3] = tested on: GALR2; conditions: for GALR2 mRNA expression in the corpus striatum: naive rats, mean ± SEM
Description: (§1) The method to perform RNA isolation and RT-PCR was described previously (Millon et al., 2015). Total RNA was isolated from the corpus striatum using RNeasy Lipid Tissue kit (Qiagen, Hilden, Germany). cDNA was obtained using a Reverse Transcriptase Core kit (Eurogentec, Seraing, Belgium). These steps were performed according to the manufacturer's instructions.
(§2) All PCR analyses were performed in triplicate using Power SYBR Green PCR Master Mix (Applied Biosystems, Foster City, USA) in the 7500 RT-PCR system (Applied Biosystems, Foster City, USA). The primer sequences used in this study are:
(§3) The data was analysed using the comparative Ct method and normalised to measurements of glyceraldehyde-3-phosphate dehydrogenase (GAPDH) mRNA.
(§4) Groups of naïve rats were injected i.p. with ethanol at 4 g/kg (Bilbao et al., 2016), dissolved in a 0.9% sterile saline solution (w/v), and 0, 2, and 4 hours after the injection the brains were extracted after a rapid decapitation. The corpus striatum was quickly extracted from all the animals and frozen immediately on solid CO2 until use. The method to perform RNA isolation and RT-PCR was described previously.

[4] = tested on: GALR1; conditions: for GALR1 mRNA expression in the corpus striatum: naive rats, mean ± SEM
Description: as §1, §2, §3, §4

[5] = tested on: rats; experiment: Two-bottle choice test for voluntary ethanol consumption and preference; format: in vivo, rat; conditions: for preference for ethanol compared with GAL / ethanol intake compared with GAL: 3 nmol i.c.v. each
Description: Male Sprague—Dawley rats (body weight 225-250 g, age 8 weeks) were obtained from Criffa and maintained in a humidity-controlled and temperature-controlled (20-22° C.) room. The rats in the two-bottle choice paradigm were during the entire protocol maintained on a 12-hour reversed light/dark cycle (lights off at 10 am) whereas the other rats were kept on 12-hour light/dark cycle. The animals had free access to food pellets and tap water. All animal experimentation was conducted in accordance with the University of Malaga Guidelines for the Care and Use of Laboratory Animals.
This protocol has been used previously (Diaz-Cabiale et al., 2011; Millon et al., 2015). Briefly, the rats were anaesthetised intraperitoneally with Equitesin (3.3 ml/kg body weight) and stereotaxically implanted with a unilateral chronic 22-gauge stainless steel guide cannula into the right lateral cerebral ventricle using the following coordinates: 1.4 mm lateral and 1 mm posterior to bregma and 3.6 mm below the surface of the skull (Paxinos, 1986). After surgery, animals were individually housed and allowed a recovery period of 7 days. The injections in the lateral ventricle were performed using a 26-gauge stainless steel injection cannula connected via PE-10 tubing to a Hamilton syringe. The total volume was 5 μl per injection, and the infusion time was 1 minute.
The solutions were prepared freshly, and the peptides were dissolved in artificial cerebrospinal fluid (with a composition of […], […] NaH2CO3, […] KCl, 0.5 nM KH2PO4, 1.2 nM CaCl2, 1.8 nM MgCl2, 0.5 nM Na2SO4, and 5.8 nM D-glucose, pH 7.4). GAL was obtained from NeoMPS, Strasbourg, France; GAL(1-15) and the GALR2 receptor antagonist M871 were obtained from Tocris Bioscience, Bristol, UK.
The two-bottle choice test was used to determine the voluntary ethanol consumption of rats as described previously (Castilla-Ortega et al., 2016). Briefly, after 7 days of water consumption (both bottles), a choice between water and increasing concentrations of ethanol [3, 6, and 10% (v/v)] was offered for 7 days each. A choice between 10% ethanol (v/v) and water was offered for several days until reaching a stable baseline value. Water and ethanol consumption were recorded daily. The position of the bottles was changed every day to avoid preference for location. Water intake (g/kg), ethanol intake (g/kg), and preference ([ethanol consumption/total fluid [water plus ethanol] consumption×100]) were calculated for each animal. Throughout the experiment, evaporation and spillage estimates were calculated using an empty cage with two bottles, one containing water and the other containing the appropriate ethanol solution. In the experiments, a choice between ethanol (10%) and water was offered.
Three sets of experiments were conducted in the two bottle choice paradigm. In the first set of experiments, a dose-response curve of GAL(1-15) was performed. For this, groups of rats received i.c.v. 1 nmol or 3 nmol of GAL(1-15), or vehicle 2, 14, and 24 hours before the measurements. In the second set of experiments, the effects of the two-bottle choice test for GAL and GAL(1-15) were compared. For this, groups of rats received i.c.v. 3 nmol of GAL, 3 nmol of GAL(1-15), or vehicle, 2, 14, and 24 hours before the test. In the last set of experiments, the role of GALR2 was studied; for this, groups of rats received i.c.v. 3 nmol of GAL(1-15) combined with 3 nmol of GALR2 […] before the measurements.

[6] = tested on: Rab5; experiment: Rab5 mRNA expression in the corpus striatum during voluntary ethanol consumption (RT-PCR); format: in vivo, rat; conditions: 3 nmol i.c.v., 2 hours after administration, two-bottle choice rats, versus vehicle/EtOH
Description: (§5) Groups of rats from the two-bottle choice paradigm were killed by decapitation 2 hours after a single i.c.v. administration of 3 nmol of GAL(1-15) or vehicle, and the corpus striatum was dissected and frozen on solid CO2 until mRNA expression analysis.

[7] = tested on: C-Fos; experiment: C-Fos mRNA expression in the corpus striatum during voluntary ethanol consumption (RT-PCR); format: in vivo, rat; conditions: 3 nmol i.c.v., 2 hours after administration, two-bottle choice rats, versus vehicle/EtOH
Description: as §5

[8] = tested on: GALR1; experiment: GALR1 mRNA expression in the corpus striatum during voluntary ethanol consumption (RT-PCR); format: in vivo, rat; conditions: 3 nmol i.c.v., 2 hours after administration, two-bottle choice rats, versus vehicle/EtOH
Description: as §5

[9] = tested on: GALR2; experiment: GALR2 mRNA expression in the corpus striatum during voluntary ethanol consumption (RT-PCR); format: in vivo, rat; conditions: 3 nmol i.c.v., 2 hours after administration, two-bottle choice rats, versus vehicle/EtOH (p=0.101)
Description: as §5

[10] = tested on: rats; experiment: Ethanol self-administration (operant model); format: in vivo, rat
Description: The use of operant models as substance self-administration models are widely used for performing motivation or hedonic studies. In these models, the animal has to “work” to obtain the reinforcing substance by pressing a lever, which allows the investigator to observe the animal's interest in the substance, as well as to learn the effect of the substance as a reward for the animal (Leeman et al., 2010). The method is performed according to earlier protocols (Alén et al., 2009) with some modifications. The test consists of a two-week training phase in which rats are kept the first 2 to 4 days with a water restriction to facilitate the learning of the task of pressing the lever to obtain the reinforcement. Animals are exposed daily to 30-minute sessions in self-administration boxes (Letica instruments). The boxes are equipped with two retractable levers located on both sides of a liquid dispenser (0.1 mL) positioned in the centre of the box panel. […] Once the training period is over, where all the animals have proven to have learned the task, daily sessions continue to be performed until establishing a stable baseline. Then training begins for ethanol consumption, and for this purpose a gradual increase in ethanol concentration (from 2% to 10%) is performed at the same time as a gradual reduction in saccharin concentration (from 0.16% to 0%) over several days, where after this period the animals become accustomed consuming 10% ethanol. After several sessions to establish a stable baseline, the animals are subjected to placement of a chronic intracerebroventricular cannula, leaving them for several days after this intervention to again establish a stable ethanol consumption baseline. Then the test is performed, consisting of a 30-minute session after administration of the different treatments, recording the number of active lever presses, as well as the number of rewards (FIG. 7).
Two sets of ethanol self-administration experiments were performed. In the first set of experiments, a dose-response curve of GAL(1-15) was performed. For this, groups of rats received i.c.v. GAL(1-15) at doses of 0.3, 1, and 3 nmol, or vehicle. In the second set of experiments, the effect of GAL 3 nmol and GAL(1-15) 3 nmol in ethanol self-administration were compared.

[11] = ethanol 1.75 g/kg i.p., five minutes after administration, open field
[12] = 0 hours after i.p. injection of EtOH (4 g/kg)
[13] = 2 hours after i.p. injection of EtOH (4 g/kg)
[14] = 4 hours after i.p. injection of EtOH (4 g/kg)
[15] = 3 nmol i.c.v. each, 2, 14, 24 hours
[16] = i.c.v., any dose (1 or 3 nmol), any time point

CCO [EtOH, ethanol]
ADH activity (liver) ([1]; voluntary ethanol intake in two-bottle choice test, i.c.v. cerebrospinal fluid vehicle, mean ± SEM): 313.1 ± 10.6 protein IU/g | ADH activity compared with the baseline group ([1]; voluntary ethanol intake through the two-bottle choice test protocol): significant increase | distance travelled [2, 11]: reduced | mean speed [2, 11]: reduced | GALR2 mRNA expression in the corpus striatum [3, 12]: 1.21 ± 0.1 | GALR2 mRNA expression in the corpus striatum [3, 13]: 1.23 ± 0.1 | GALR2 mRNA expression in the corpus striatum [3, 14]: 1.44 ± 0.1 | effect on GALR2 mRNA levels in the corpus striatum ([3]; single injection of ethanol 4 g/kg i.p., any time point): No effects were observed | GALR1 mRNA expression in the corpus striatum [4, 12]: 0.87 ± 0.2 | GALR1 mRNA expression in the corpus striatum [4, 13]: 0.60 ± 0.1 | GALR1 mRNA expression in the corpus striatum [4, 14]: 0.47 ± 0.1 | effect on GALR1 expression in the corpus striatum ([4]; single injection of ethanol 4 g/kg i.p., at 2 and 4 hours): no effect

Gly-Trp-Thr-Leu-Asn-Ser-Ala-Gly-Tyr-Leu-Leu-Gly-Pro-His-Ala (GWTLNSAGYLLGPHA; General formula for GAL 1-15) [GAL(1-15)]
preference for ethanol ([5]; 1 nmol i.c.v.): no effects | ethanol intake ([5]; 1 nmol i.c.v., all the time points analysed (2, 14, 24 hours)): no effect | food intake, difference between GAL and GAL(1-15) [5, 15]: No differences were found | water intake, difference between GAL and GAL(1-15) [5, 15]: No differences were found | preference for ethanol compared with GAL ([5]; 2 hours after administration): decreased | ethanol intake compared with GAL ([5]; 2 hours after injection): significantly decreased | ethanol intake compared with GAL ([5]; 14 hours after injection): significantly decreased | ethanol intake compared with GAL ([5]; 24 hours after injection): significantly decreased | preference for ethanol compared with GAL ([5]; 24 hours later): maintained | decrease in the preference for ethanol ([5]; 3 nmol i.c.v., 2 hours after administration): 90% | ethanol intake ([5]; 3 nmol i.c.v., 2 hours after administration, 10% ethanol vs water, versus vehicle): significantly decreased | ethanol intake ([5]; 3 nmol i.c.v., 14 hours after administration, 10% ethanol vs water, versus vehicle): significantly decreased | preference for ethanol (decrease) ([5]; 3 nmol i.c.v., 24 hours): maintained | ethanol intake ([5]; 3 nmol i.c.v., 24 hours after administration, 10% ethanol vs water, versus vehicle): significantly decreased | food intake [5, 16]: no differences were found | water intake [5, 16]: no differences were found | mRNA levels of Rab5 in corpus striatum [6]: significant increase | distance travelled ([2]; GAL(1-15) 3 nmol i.c.v. 20 min before test, rats given i.p. ethanol 1.75 g/kg): decreased | distance travelled ([2]; GAL(1-15) 3 nmol i.c.v. 20 min before test, rats given systemic saline solution): no such effects were observed | mean speed ([2]; GAL(1-15) 3 nmol i.c.v. 20 min before test, rats systemically treated with ethanol 1.75 g/kg): decreased | mRNA levels of C-Fos in corpus striatum [7]: significant increase | GALR1 mRNA levels in corpus striatum [8]: significant decrease | GALR2 expression in corpus striatum [9]: slight reduction | number of reinforcements in ethanol self-administration ([10]; 0.3 nmol i.c.v. 15 min before the test): no effect | number of ethanol reinforcements ([10]; 1 nmol i.c.v. 15 min before the test, versus control): significant decrease | number of ethanol reinforcements (reduction) ([10]; 3 nmol i.c.v. 15 min before the test, versus control): even more pronounced | number of ethanol reinforcements compared with GAL ([10]; 3 nmol i.c.v. each, 15 min before the test): significantly reduces
